pIC50: −log10 of the molar value.
Legend:
[1] = target: T1, LTD4 receptor (guinea pig lung receptors) (Cavia porcellus, UniProt Q2NNR5); test: Leukotriene Receptor Binding Assay (LTD4 receptor binding, guinea pig lung membrane); settings: LTD4 binding to guinea pig lung membrane receptors; read-out: LTD4 antagonism: Receptor Binding Assay (IC50)
T1 construct: isolated from guinea pig lung membrane; from tissue; host or cells: guinea pig lung membrane
T1 sequence (Q2NNR5 1-340): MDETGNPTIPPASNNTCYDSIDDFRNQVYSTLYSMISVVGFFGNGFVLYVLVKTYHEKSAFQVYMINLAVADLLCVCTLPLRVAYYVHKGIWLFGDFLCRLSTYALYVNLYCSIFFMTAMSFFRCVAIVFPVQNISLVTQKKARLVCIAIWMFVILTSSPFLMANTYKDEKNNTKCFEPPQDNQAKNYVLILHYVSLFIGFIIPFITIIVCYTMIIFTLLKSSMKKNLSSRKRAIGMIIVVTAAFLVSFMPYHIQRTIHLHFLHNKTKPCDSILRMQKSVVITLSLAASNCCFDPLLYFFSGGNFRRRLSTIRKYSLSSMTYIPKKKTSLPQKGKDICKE
Method: Leukotriene Receptor Binding Assay
The in vitro LTD4 receptor binding assay is carried out as follows:
Specific binding of titrated LTD4 to a fixed number of guinea pig lung receptors, isolated from guinea pig lung membrane, is measured in the presence and absence of test compound. The initial screening dose (1×10^-5 M) is considered active if the specific binding of the LTD4 is reduced by 45% or more. Active compounds are tested in a dose-response manner to determine IC50 values.

[2] = target: T2, guinea pig ileum (LTD4-induced contraction) (Cavia porcellus, UniProt Q2NNR5); test: LTD4 Antagonism in Guinea Pig Ileum; type: cell-based; settings: pA2, negative log of antagonist concentration required to produce a dose-ratio of 2
T2 construct: Fresh segments of guinea pig ileum; from tissue; host or cells: guinea pig ileum segments
T2 sequence (Q2NNR5 1-340): T1 sequence (Q2NNR5 1-340)
Method: LTD4 Antagonism in Guinea Pig Ileum
Fresh segments of guinea pig ileum were suspended in 2 ml. tissue baths containing oxygenated modified Tyrodes solution. After an equilibration period, an agonist dose-response curve was generated by exposing each tissue to 4 different LTD4 doses and measuring the ensuing contractile heights. The ileum segments were washed and rested between exposures to agonist. Following this, the tissues were incubated with a single concentration of test compound and the agonist dose-response procedure was repeated. The dose ratio is a measure of the antagonist's ability to shift the agonist dose-response curve to the right. It is derived as the concentration of agonist necessary to reach a given response level in the presence (A') versus the absence (A) of antagonist. For example, if the test concentration of compound had no effect on the agonist-induced response (A'=A) the dose-ratio would approximate 1. […] One dose-ratio value is determined for each strip of ileum used to test antagonist. […] Schild analysis examines the linearity of the function described by the dose-ratios written as log [(A'/A)-1] versus antagonist concentration. If the linearity is […] and the slope approximates 1, inhibition is considered to be competitive. The pA2 is the negative log of the antagonist concentration required to produce a dose-ratio of 2. […]

[3] = test system: LTD4-induced bronchoconstriction; test: In Vivo Bronchoconstriction Assay (LTD4-induced intratracheal insufflation pressure increase); design: species or system guinea pig (Hartly); settings: guinea pig, 2000 units of LTD4 IV
Method: The compounds are tested in vivo as follows. Adult male fasted Hartly guinea pigs weighing 300-350 g are pretreated with pyrilamine and indomethacin to block the bronchoconstricture effects of endogenous histamine and the synthesis of thromboxane A2 respectively. Compounds of the invention are administered IV or IG at appropriate times prior to the IV administration of 2000 units of LTD4. Intratracheal pressure is monitored prior to and subsequent to LTD4 in animals anesthetized with pentobarbital and attached to a rodent respirator. Compounds which antagonize the direct component of LTD4 action on respiratory smooth muscle inhibit intratracheal insufflation pressure increases (P< or =0.05) caused by LTD4. FPL 55712 is used as a control.

LTB4 receptor = target: T3, LTB4 receptor (Homo sapiens, UniProt Q15722); test: LTB4 Receptor Binding Assay (human neutrophils); settings: 0.6 nano M (3H) LTB4, 0° C., 45 minutes, read-out: LTB4 antagonism: Receptor Binding Assay (IC50)
T3 construct: Neutrophils are purified from venous blood of normal human donors; endogenous in cells; host or cells: human neutrophils from venous blood
Method: (§1) Preparation of Human Neutrophils
(§2) Neutrophils are purified from venous blood of normal human donors using standard techniques of dextran sedimentation, centrifugation on Histopaque sterile solution (Sigma) and hypotonic lysis of erythrocytes (Boyum, A., Isolation of Leukocytes From Human Blood: Further Observations. Scand. J. Lab. Clin. Invest. 21 (Suppl. 97): 31, 1968). The purity of isolated neutrophils was ≥95%.
LTB4 Receptor Binding Assay
Neutrophils (4-6×10^6) in 1 ml Hanks' balanced salt solution containing 10 mM HEPES buffer (HBSS), pH 7.4 and […] nordihydroguaiaretic acid were incubated with 0.6 nano M (^3 H) LTB4 in the presence or absence of test compounds. The incubation was carried out at 0° C. for 45 minutes and terminated by adding 5 ml of ice-cold HBSS followed by rapid filtration of incubation mixture under vacuum through GF/C glass fiber filters. The filters were further washed with 10 ml HBSS and radioactivity was determined. […] All data refer to specific binding.

[4] = test system: human neutrophils (myeloperoxidase release); test: Human Neutrophil Degranulation Assay; type: cell-based; settings: table head LTB4 antagonism (method: LTB4 5×10^-8 M or f-met-leu-phe 5×10^-6 M)
Method: as §1, §2
Human Neutrophil Degranulation Assay
Neutrophil degranulation was determined by measuring the release of myeloperoxidase activity into the incubation medium. Neutrophils (3×10^6) in 1 ml HBSS solution were preincubated with cytochalasin B(5μg) at 37° C. for 5 minutes, followed by preincubation with test compounds for 7 minutes. […] The supernatants and the pellet-extracts were then assayed spectrophotometrically for myeloperoxidase activity by determining the rate of decomposition of H2 O2 with o-dianisidine as hydrogen donor as described by Renlund, et al. (Renlund, D. G., MacFarlane, J. L., Christensen, R. D., Lynch, R. E., and Rothstein, G., A Quantitive And Sensitive Method for Measurement of Myeloperoxidase, Clinical Research 28:75A, 1980). Myeloperoxidase activity released into the supernatant was expressed as the percent of the average total activity (pellet plus supernatant).

[5] = test system: LTB4-induced dermal neutrophil chemotaxis (MPO activity); test: Guinea Pig LTB4-Induced Dermal Chemotaxis; type: in vivo; settings: Cavia porcellus, method: 35 ng LTB4 intradermal, compound IV or IG, MPO at 4 hours, read-out: LTB4 antagonism: Guinea Pig LTB4 Induced Dermal Chemotaxis (IC50)
Method: Guinea Pig LTB4 -Induced Dermal Chemotaxis
Test compound was administered intravenously or intragastrically at various times prior to the injection of leukotriene B4 (LTB4). LTB4 was diluted in phosphate buffered saline (PBS) and 35 ng in 0.2 ml were injected intradermally into the shaven backs of anesthetized guinea pigs. PBS was injected as control. Four hours later, animals were sacrificed, skins removed and stored frozen (-70° C.). Injection sites were removed with a skin punch and mechanically homogenized (Polytron, Brinkmann Instruments). Myeloperoxidase (MPO), a marker enzyme for neutrophils, was extracted by 0.5% hexadecyltrimethylammonium bromide in 50 mM potassium phosphate buffer (pH 6.0), using sonication and freeze-thaw procedures. After centrifugation (40,000×g, 30 minutes), enzyme activities in the supernatants were assayed spectrophotometrically (A460) by measuring the decomposition of hydrogen peroxide with ortho-dianisidine after 15 minutes. […] In guinea pigs the level of MPO activity increased with the amount of LTB4 injected.

T3 sequence (Q15722 whole entry): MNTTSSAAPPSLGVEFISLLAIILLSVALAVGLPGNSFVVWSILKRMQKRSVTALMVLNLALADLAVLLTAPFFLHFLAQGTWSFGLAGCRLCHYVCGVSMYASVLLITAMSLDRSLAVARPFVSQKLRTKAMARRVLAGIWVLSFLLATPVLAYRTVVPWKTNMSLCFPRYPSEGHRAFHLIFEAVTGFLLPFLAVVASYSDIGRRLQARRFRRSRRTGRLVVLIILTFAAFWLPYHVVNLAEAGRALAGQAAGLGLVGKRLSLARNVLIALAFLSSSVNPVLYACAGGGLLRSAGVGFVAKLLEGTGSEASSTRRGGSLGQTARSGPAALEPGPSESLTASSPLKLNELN

## CCCc1c(OCCCSCC2COC3(CCC(CC(=O)O)C3)S2)ccc(C(C)=O)c1O (stereo not drawn) [Example 2, 3-[[[3-(4-acetyl-3-hydroxy-2-propylphenoxy)propyl]thio]methyl]-1-oxa-4-thiaspiro[4.4]nonane-7-acetic acid]
[1]
  pIC50: 5.21
[2]
  Kb: 0.0457 µM
[3]
  LTD4 antagonism: In Vivo Bronchoconstriction Assay (% Inhibition at 5 mpk. IV): 94.7%
LTB4 receptor
  pIC50: 6.10
[4]
  pIC50: 5.14
[5]
  pIC50: 5.08
